In ChEMBL document CHEMBL1201862, “PubChem BioAssay data set” (2004):
Active and inactive are the calls of the source.

Tests used:
[1] = molecular target: Delta-type opioid receptor (Homo sapiens, UniProt P41143); test: Counterscreen for agonists of heterodimerization of the mu 1 (OPRM1) and delta 1 (OPRD1) opioid receptors: Luminescence-based cell-based high throughput dose response assay to identify agonists of OPRD1 homodimerization. [Related pubchem assays (depositor defined):AID504326, AID504355, AID504692, AID504904, AID504905]; type: functional
Sequence of Delta-type opioid receptor (P41143 whole entry): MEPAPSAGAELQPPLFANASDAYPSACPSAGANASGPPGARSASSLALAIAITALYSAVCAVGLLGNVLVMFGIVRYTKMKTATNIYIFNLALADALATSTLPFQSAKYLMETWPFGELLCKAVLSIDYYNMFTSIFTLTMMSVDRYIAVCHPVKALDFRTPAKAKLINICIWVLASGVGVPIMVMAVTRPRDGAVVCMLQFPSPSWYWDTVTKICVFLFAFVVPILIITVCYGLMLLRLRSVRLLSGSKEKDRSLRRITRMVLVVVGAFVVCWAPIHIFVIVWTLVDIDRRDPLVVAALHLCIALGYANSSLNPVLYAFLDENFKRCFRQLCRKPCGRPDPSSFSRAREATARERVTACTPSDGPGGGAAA

Mu-type opioid receptor = Mu-type opioid receptor (Homo sapiens, UniProt P35372); test: Counterscreen for agonists of heterodimerization of the mu 1 (OPRM1) and delta 1 (OPRD1) opioid receptors: Luminescence-based cell-based high throughput dose response assay to identify agonists of OPRM1 homodimerization.; type: functional;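 further: U2OS cells expressing OPRM1 and beta-arrestin as split beta-galactosidase partners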
Sequence of Mu-type opioid receptor (P35372 whole entry): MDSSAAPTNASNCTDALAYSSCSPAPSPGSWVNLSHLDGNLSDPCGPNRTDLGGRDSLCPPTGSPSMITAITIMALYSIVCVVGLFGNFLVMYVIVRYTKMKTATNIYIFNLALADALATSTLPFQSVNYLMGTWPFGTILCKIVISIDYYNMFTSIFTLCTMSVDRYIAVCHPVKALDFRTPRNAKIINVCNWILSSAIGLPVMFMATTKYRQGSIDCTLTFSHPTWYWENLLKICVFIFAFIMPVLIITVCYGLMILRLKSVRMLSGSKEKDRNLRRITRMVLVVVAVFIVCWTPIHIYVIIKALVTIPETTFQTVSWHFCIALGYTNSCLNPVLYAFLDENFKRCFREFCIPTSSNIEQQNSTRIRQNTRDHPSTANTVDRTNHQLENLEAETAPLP

[2] = molecular target: 5-hydroxytryptamine receptor 5A (Homo sapiens, UniProt P47898); test: Counterscreen for agonists of OPRM1-OPRD1 heterodimerization: luminescence-based cell-based high throughput dose response assay to identify agonists of 5-hydroxytryptamine (serotonin) 5A receptor (HTR5A). [Related pubchem assays (depositor defined):AID504326, AID504355, AID504692, AID504904, AID504905]; type: functional
Sequence of 5-hydroxytryptamine receptor 5A (P47898 whole entry): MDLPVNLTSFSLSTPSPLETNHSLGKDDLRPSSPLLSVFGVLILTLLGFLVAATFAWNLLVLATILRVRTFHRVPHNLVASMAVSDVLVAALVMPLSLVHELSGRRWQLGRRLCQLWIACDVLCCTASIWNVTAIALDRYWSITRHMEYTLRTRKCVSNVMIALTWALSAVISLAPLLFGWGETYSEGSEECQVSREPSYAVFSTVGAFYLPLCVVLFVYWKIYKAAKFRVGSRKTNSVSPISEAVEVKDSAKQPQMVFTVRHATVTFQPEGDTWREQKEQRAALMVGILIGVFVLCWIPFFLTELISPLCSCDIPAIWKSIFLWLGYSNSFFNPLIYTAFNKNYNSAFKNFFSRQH

[3] = insulin promoter down-regulators in MIN6 cells, imaging, high-content screening, mouse beta cells (AID 1628); type: functional
[4] = Shn3 3'UTR reporter inhibitors, dose response, cell-based, Clone20 osteoblasts, firefly luciferase, cherry-picked (AID 624132); type: functional;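 further: firefly luciferase luminescence from reporter carrying the Shn3 3'UTR in osteoblasts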
[5] = cytotoxicity in MIN6 insulinoma cells, dose response, cytotoxicity control, cell-based, mouse insulinoma (AID 2122); type: functional;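 further: confirmatory high-throughput counterscreen run to flag cytotoxic compounds; mouse MIN-6 beta cells carrying an insulin promoter eGFP reporter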
[6] = control 3'UTR Renilla luciferase suppression, dose response, counter-screen for Shn3 inhibitor project, cell-based, Clone20-Shn3RL, cherry-picked (AID 624133); type: functional
[7] = HepG2 cell cytotoxicity, dose response, cytotoxicity control for Shn3 inhibitor project, CellTiter-Glo, cherry-picked (AID 624134); type: functional, cell-based
Protein Wnt-3a = Protein Wnt-3a (Mus musculus, UniProt P27467); test: Wnt3a-driven reporter signaling inhibition, dose response, selectivity assay for Gli-SUFU antagonist project, Wnt-LIGHT cells, luminescence (AID 651570); type: functional; conditions: read-out: IC50_Mean;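 further: Wnt-LIGHT reporter cells stimulated with conditioned medium from Wnt3a-producing cells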
Sequence of Protein Wnt-3a (P27467 whole entry): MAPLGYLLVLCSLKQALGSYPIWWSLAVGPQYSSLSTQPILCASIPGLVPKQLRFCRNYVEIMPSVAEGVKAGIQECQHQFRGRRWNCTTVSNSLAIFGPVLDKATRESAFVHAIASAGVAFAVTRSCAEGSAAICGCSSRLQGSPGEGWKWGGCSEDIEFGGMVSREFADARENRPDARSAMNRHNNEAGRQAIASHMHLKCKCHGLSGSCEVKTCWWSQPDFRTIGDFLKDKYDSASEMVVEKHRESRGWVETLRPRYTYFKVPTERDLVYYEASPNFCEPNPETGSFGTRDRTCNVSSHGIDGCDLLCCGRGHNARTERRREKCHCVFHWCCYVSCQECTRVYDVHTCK

[8] = molecular target: T1, Tyrosine-protein phosphatase non-receptor type 22 (Homo sapiens, UniProt Q9Y2R2); type: functional
T1 sequence (Q9Y2R2 whole entry): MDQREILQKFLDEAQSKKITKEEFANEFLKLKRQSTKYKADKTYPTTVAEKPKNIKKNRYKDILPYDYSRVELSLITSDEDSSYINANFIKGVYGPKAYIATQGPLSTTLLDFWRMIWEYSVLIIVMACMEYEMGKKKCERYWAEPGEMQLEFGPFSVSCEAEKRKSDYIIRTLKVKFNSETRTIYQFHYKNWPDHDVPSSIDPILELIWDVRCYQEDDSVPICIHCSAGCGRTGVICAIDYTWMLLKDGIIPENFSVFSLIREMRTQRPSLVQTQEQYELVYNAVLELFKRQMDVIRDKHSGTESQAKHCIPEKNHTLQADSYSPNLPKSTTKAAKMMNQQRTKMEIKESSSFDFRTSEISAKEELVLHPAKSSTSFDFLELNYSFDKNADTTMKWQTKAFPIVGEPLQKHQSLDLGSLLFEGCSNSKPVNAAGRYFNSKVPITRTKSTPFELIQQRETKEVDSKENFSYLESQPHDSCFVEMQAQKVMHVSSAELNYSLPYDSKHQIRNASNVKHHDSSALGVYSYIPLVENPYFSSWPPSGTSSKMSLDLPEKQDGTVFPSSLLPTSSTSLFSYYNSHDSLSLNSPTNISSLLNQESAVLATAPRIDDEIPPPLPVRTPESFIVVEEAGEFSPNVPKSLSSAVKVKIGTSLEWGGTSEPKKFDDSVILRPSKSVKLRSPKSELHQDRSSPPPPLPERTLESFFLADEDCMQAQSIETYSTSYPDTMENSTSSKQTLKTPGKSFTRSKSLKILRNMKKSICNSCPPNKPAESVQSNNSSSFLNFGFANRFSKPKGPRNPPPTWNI

[9] = molecular target: T2, Tyrosine-protein phosphatase non-receptor type 7 (Homo sapiens, UniProt P35236); type: functional
T2 sequence (P35236 whole entry): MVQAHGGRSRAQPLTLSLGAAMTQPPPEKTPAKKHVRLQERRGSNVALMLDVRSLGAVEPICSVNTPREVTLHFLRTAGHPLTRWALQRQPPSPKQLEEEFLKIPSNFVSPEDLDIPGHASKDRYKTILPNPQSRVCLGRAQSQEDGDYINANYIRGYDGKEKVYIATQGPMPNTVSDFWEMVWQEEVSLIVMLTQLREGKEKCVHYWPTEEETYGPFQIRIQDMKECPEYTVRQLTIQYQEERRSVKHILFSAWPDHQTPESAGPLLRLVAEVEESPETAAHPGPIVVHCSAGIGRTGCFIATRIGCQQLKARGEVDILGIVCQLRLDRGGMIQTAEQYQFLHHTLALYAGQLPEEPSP

[10] = molecular target: T1, Tyrosine-protein phosphatase non-receptor type 22; type: functional; remark: listed apart in the source
Cytochrome P450 2D6 = Cytochrome P450 2D6 (Homo sapiens, UniProt P10635);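 further: CYP2D6 member of a cytochrome P450 panel assay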
Sequence of Cytochrome P450 2D6 (P10635 whole entry): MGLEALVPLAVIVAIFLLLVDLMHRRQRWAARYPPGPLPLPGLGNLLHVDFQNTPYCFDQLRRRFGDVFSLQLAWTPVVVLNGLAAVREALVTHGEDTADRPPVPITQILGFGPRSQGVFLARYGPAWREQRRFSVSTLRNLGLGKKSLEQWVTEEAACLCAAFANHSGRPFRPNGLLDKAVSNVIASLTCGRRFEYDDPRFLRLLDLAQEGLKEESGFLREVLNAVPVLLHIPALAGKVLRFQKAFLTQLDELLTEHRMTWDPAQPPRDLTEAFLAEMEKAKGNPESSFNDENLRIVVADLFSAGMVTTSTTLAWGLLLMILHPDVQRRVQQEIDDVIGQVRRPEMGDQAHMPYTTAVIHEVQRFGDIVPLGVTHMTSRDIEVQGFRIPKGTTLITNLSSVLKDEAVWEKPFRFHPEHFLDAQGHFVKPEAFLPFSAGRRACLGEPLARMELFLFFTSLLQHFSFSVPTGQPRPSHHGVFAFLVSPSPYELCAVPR

[11] = cytotoxicity in HMLE control line with eGFP shRNA, dose response, counter-screen for HMLE_sh_ECad selective toxicity project, cell-based, HMLE_sh_eGFP, luminescence (AID 463074); type: functional, Homo sapiens;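 further: HMLE human mammary epithelial cells expressing control shRNA against eGFP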
H4 = test: Luminescence Cell-Based Dose Response HTS to Identify Activators of 5'UTR Stem-Loop Driven Prion Protein mRNA Translation in H4 Neuroglioblastoma Cells. [Related pubchem assays: 1829 (Project Summary), 1814 (Primary HTS)]; type: functional; conditions: Homo sapiens
[12] = Luminescence Cell-Based Dose Response HTS to Identify Activators of Luciferase Translation or Activity in H4 […] Cells. [Related pubchem assays: 1829 (Project Summary), 1814 (Primary HTS)]; type: functional
[13] = HepG2 cell cytotoxicity, dose response, cytotoxicity control, ATP luminescence, cherry-pick, activator set 2 (AID 1053143); type: functional, cell-based
[14] = Luminescence Cell-Based Dose Retest to Confirm Inhibitors of Cancer Stem Cells. [Related pubchem assays (depositor defined):AID2717, AID2721]; type: functional; conditions: Homo sapiens
[15] = molecular target: T3, Orexin/Hypocretin receptor type 1 (Homo sapiens, UniProt O43613); test: Homogeneous Time Resolved Fluorescence (HTRF)-based cell-based high throughput dose response assay for antagonists of the orexin 1 receptor (OX1R; HCRTR1). [Related pubchem assays (depositor defined):AID434989, AID435008, AID463079, AID485270, AID492963, AID492964, AID492965, AID493232, AID504717, AID504718]; type: functional
T3 sequence (O43613 whole entry): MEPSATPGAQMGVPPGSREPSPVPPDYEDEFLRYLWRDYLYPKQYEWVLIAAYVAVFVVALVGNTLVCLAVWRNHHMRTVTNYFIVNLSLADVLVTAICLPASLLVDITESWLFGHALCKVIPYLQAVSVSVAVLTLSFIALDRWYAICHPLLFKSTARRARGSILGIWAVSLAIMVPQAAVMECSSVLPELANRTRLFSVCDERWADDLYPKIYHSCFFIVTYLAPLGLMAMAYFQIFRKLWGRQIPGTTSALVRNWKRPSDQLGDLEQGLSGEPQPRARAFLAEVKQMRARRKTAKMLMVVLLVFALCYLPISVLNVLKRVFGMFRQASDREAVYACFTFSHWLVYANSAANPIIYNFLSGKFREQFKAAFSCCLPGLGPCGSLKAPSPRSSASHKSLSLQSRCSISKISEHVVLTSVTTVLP

CHO-K1 = test: (§1) Counterscreen for antagonists of the orexin 1 receptor (OX1R; HCRTR1): Homogeneous time resolved fluorescence (HTRF)-based cell-based dose response assay to identify antagonists of the parental CHO-K1 cell line. [Related pubchem assays (depositor defined):AID434989, AID435008, AID463079, AID485270, AID492963, AID492964, AID492965, AID493232, AID504699, AID504701]; type: functional; conditions: Cricetulus griseus
[16] = as §1, with “Fluorescence-based” for “Homogeneous time resolved fluorescence (HTRF)-based”, “cell-based high throughput” for “cell-based”, “CHO” for “CHO-K1”; type: functional
[17] = molecular target: T3, Orexin/Hypocretin receptor type 1; test: Fluorescence-based cell-based high throughput dose response assay for antagonists of the orexin 1 receptor (OX1R; HCRTR1). [Related pubchem assays (depositor defined):AID434989, AID435008, AID463079, AID485270, AID492963, AID492964, AID492965, AID493232, AID504717, AID504718]; type: functional
[18] = molecular target: T4, Alkaline phosphatase, tissue-nonspecific isozyme (Homo sapiens, UniProt P05186)
T4 sequence (P05186 whole entry): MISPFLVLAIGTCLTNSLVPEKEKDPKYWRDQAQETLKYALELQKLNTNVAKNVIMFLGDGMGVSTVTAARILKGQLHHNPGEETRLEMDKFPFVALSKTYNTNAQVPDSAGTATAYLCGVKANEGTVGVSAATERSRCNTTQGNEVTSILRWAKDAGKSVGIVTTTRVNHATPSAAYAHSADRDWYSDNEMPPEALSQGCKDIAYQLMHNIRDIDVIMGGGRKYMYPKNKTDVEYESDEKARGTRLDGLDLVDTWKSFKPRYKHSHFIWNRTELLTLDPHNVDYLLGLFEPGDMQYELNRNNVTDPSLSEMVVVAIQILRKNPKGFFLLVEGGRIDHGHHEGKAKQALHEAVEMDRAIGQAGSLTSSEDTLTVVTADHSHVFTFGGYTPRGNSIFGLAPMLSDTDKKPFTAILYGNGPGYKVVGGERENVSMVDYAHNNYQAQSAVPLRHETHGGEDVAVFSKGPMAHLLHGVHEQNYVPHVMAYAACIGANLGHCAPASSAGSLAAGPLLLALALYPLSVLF

[19] = molecular target: T5, Polyadenylate-binding protein 1 (Homo sapiens, UniProt P11940); test: PABP1 MLLE–PAM2 interaction inhibitors, dose response, miRNA deadenylation inhibitor project, biochemical, fluorescence polarization, Cy5-PAM2 peptide, secondary (AID 602260); type: functional; conditions: read-out: IC50_Mean
T5 sequence (P11940 whole entry): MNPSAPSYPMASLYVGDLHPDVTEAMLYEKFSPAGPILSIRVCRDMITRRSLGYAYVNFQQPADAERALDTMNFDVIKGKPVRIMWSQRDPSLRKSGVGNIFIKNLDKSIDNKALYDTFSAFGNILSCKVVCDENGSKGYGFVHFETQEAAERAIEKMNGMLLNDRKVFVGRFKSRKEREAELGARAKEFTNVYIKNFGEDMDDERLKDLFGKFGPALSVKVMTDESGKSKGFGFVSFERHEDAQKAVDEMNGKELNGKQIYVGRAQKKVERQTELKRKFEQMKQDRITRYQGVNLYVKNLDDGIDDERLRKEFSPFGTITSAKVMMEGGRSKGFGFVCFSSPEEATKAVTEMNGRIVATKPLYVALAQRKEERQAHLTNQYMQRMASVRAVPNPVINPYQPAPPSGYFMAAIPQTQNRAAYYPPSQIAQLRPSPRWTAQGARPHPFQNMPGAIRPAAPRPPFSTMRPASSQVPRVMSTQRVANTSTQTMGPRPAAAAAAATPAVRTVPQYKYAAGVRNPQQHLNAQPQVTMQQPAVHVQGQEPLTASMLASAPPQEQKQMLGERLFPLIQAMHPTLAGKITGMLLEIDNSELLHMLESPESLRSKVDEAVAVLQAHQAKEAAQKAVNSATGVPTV

[20] = molecular target: T5, Polyadenylate-binding protein 1; test: PABP1 MLLE–PAM2 binding inhibitor potency, dose response, biochemical, fluorescence polarization, FITC-PAM2 peptide (AID 602259); type: functional; conditions: read-out: IC50_Mean
cells [21] = type: functional, cell-based
Coagulation factor XII = Coagulation factor XII (Homo sapiens, UniProt P00748); type: functional;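 further: activated factor XIIa alpha cleaving a fluorogenic AMC peptide substrate; inhibitor potency from loss of enzyme activity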
Sequence of Coagulation factor XII (P00748 20-372 limits assumed): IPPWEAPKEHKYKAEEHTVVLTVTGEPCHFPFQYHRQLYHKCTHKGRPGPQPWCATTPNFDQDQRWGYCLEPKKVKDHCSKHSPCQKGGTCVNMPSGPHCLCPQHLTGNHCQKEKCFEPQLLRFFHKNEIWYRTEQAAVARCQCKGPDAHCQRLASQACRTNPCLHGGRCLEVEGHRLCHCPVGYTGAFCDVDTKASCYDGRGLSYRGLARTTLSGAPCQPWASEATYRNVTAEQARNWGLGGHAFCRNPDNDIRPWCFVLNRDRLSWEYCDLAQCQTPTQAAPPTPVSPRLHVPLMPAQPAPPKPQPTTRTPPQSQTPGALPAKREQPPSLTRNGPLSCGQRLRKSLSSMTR
Sequence of Coagulation factor XII (P00748 373-615 limits assumed): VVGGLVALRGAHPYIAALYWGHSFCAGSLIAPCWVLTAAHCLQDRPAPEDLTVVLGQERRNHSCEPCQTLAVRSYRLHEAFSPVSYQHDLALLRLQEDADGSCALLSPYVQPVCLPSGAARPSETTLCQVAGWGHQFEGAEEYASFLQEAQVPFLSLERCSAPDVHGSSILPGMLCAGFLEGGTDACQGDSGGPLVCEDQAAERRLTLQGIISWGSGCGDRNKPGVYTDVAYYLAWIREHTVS

[22] = molecular target: FAD-linked sulfhydryl oxidase ALR (Homo sapiens, UniProt P55789); test: inhibitors of human ALR sulfhydryl oxidase, dose response, biochemical, H2O2 detection, luminescence, cherry-pick (AID 493248)
Sequence of FAD-linked sulfhydryl oxidase ALR (P55789 whole entry): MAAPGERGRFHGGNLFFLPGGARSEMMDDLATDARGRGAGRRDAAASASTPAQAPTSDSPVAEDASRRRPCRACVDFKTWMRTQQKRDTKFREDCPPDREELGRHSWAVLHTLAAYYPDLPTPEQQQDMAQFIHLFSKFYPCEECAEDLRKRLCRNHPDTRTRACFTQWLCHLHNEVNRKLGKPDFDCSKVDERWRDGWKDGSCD

Cytochrome P450 2C9 = Cytochrome P450 2C9 (Homo sapiens, UniProt P11712)
Sequence of Cytochrome P450 2C9 (P11712 whole entry): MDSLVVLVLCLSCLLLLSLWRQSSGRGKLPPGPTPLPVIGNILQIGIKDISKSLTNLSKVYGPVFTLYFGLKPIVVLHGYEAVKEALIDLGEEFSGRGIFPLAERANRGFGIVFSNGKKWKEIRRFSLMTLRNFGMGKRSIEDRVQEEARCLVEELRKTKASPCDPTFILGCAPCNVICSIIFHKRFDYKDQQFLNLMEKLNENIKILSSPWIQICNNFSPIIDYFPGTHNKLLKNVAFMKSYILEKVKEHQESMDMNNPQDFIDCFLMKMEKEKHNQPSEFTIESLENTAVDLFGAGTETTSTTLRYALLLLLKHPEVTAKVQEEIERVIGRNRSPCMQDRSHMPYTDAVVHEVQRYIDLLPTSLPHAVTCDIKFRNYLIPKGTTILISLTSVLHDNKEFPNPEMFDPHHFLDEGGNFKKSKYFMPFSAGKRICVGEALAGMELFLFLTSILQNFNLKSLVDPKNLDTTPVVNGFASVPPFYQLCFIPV

cells [23] = type: functional, cell-based; remark: listed apart in the source
Cytochrome P450 2C19 = Cytochrome P450 2C19 (Homo sapiens, UniProt P33261); test: Cytochrome panel assay with activity outcomes. Panel member name: p450-cyp2c19 Compounds with AC50 equal or less than 10 uM are considered active; type: functional; conditions: read-out: AC50
Sequence of Cytochrome P450 2C19 (P33261 whole entry): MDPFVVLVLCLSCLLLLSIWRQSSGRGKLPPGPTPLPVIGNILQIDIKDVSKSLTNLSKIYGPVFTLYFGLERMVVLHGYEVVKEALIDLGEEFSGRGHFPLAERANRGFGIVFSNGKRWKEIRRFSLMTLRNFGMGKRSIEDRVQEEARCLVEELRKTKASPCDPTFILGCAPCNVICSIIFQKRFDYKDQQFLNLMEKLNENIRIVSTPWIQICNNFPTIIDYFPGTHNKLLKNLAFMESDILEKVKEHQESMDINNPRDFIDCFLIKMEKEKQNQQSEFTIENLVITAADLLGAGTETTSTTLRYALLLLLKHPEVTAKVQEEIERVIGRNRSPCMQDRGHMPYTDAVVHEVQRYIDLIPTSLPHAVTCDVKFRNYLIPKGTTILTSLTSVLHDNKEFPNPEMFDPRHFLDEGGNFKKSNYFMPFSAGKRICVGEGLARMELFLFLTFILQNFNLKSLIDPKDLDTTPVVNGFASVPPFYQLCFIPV

With `O=C(NCCc1ccc(Cl)cc1)C1CCC(CNc2nc(=S)[nH]c3ccccc23)CC1` (centres undefined) the EC50 [1] was > 92.5 µM (inactive), the EC50 (Mu-type opioid receptor) was > 92.5 µM (inactive) and the EC50 [2] was > 92.5 µM (inactive).
For `CCc1c(C)nc2ncnn2c1N1CCN(S(=O)(=O)c2ccc(OC)cc2)CC1`, the IC50 [3] was 1.35 µM (active), the AC50 [4] was 1.16 µM (active) and the IC50 [5] was 0.936 µM (active). For the same molecule, the AC50 [6] was 3.52 µM (active), the AC50 [7] was 5.28 µM (active) and the IC50 (Protein Wnt-3a) was 5.74 µM (active).
With `CCOC(=O)CC1(NC(=O)c2cc(COc3cncc(Cl)c3)on2)CCCCC1` the IC50 [8] was > 79.4 µM (inactive), the IC50 [9] was > 79.4 µM (inactive) and the IC50 [10] was > 79.4 µM (inactive).
In the case of `Cc1ccsc1/C=C1/SC(=O)N(CC(=O)N2CCOCC2)C1=O`, the AC50 (Cytochrome P450 2D6) was “inconclusive”.
For `Cc1oc(=O)c(NC(=O)c2cccc(Cl)c2)cc1C(=O)c1ccccc1`, the AC50 [11] was 21.7 µM (active), the EC50 (H4) was 90.8 µM (active) and the EC50 [12] was 6.62 µM (active). For the same molecule, the AC50 [13] was 26 µM (active) and the AC50 [14] was 16.4 µM (active).
For `C[C@@H]1CN([C@@H](C)CO)C(=O)c2cccc(NC(=O)Nc3ccc(F)cc3)c2O[C@@H]1CN(C)Cc1ccc(Oc2ccccc2)cc1`, the IC50 [15] was > 66.2 µM (inactive), the IC50 (CHO-K1) was > 66.2 µM (inactive) and the IC50 [16] was 23.7 µM (inactive). The IC50 [17] was 11.2 µM (inactive).
For `COCCNC(=S)N/N=C(\C)c1ccccc1O`, the IC50 [3] was 2.44 µM (active), the IC50 [5] was 1.01 µM (active) and the EC50 [18] was 70.7 µM (not active). The IC50 [19] was > 66 µM (inactive) and the IC50 [20] was > 66 µM (inactive).
With `Cc1ccc(/C=N\Nc2nc3cc(Cl)ccc3[nH]2)o1` the EC50 (cells [21]) was > 350 µM (not active), the IC50 (Coagulation factor XII) was > 50 µM (inactive) and the AC50 [22] was 0.289 µM (active). For the same molecule, the AC50 (Cytochrome P450 2C9) was 7.08 µM (inconclusive), the EC50 (cells [23]) was 27.6 µM (active) and the AC50 (Cytochrome P450 2C19) was 28.2 µM (inconclusive).
With `C[N+]1(CCC(=O)c2ccco2)C[C@H]2CC[C@H](CC2)C1` (some centres undefined) the AC50 (Cytochrome P450 2D6) was “inconclusive”.
